Test results: patent US20200199102A1, “COMPOUNDS THAT PARTICIPATE IN COOPERATIVE BINDING AND USES THEREOF” (Revolution Medicines, Inc., priority 2017, published 2020)
“And” between values parts separate entries of the source, which are not always exact repeats. Equal entries are not always repeated.

Tests used:
HeLa-FKBP12 cells = test: Biosensor cell permeability assay (FKBP destabilizing mutant), HeLa-FKBP12 cells; format: cell-based; conditions: 72 hrs
Protocol: Cell permeability of compounds can be determined using the following protocol.
This protocol utilizes a modified FKBP or cyclophilin destabilizing mutant to determine the bioactivity of FKBP binding compounds or cyclophilin binding compounds in whole cell assay.
DMEM, DMEM without Phenol Red, 10% FBS, 1× Sodium Pyruvate, 1× Glutamax. Add 125 μl of media with compound per well.
Plate HeLa-FKBP12 cells (for FKBP binding compounds) or HeLa-CyclophilinA cells (for cyclophilin binding compounds) and seed overnight at 5 k/well (approximately ˜18 hrs.). Using a multi-channel pipet, take out the old media and add ˜125 ul of new media with compounds. Compounds are diluted using DMEM without Phenol Red, 10% FBS, 1× Sodium Pyruvate, 1× Glutamax. Add 125 μL of media with compound per well. Cells are treated with compounds at concentration: 30, 10, 3.33, 1.11, 0.37, 0.12, 0.04 and 0.013 uM. Time points are taken at 72 hrs and plate read using plate reader with excitation/emission: 575/620.
Cell binding/permeability is calculated in fold-change (Total RFU of treated samples/total RFU of DMSO treated samples or total RFU above background (Total RFU minus total RFU of DMSO treated samples).

FKBP12 [1] = target: T1, FKBP12 (Homo sapiens, UniProt P62942); test: AlphaLISA inhibition of binding of biotinylated FK506 to FLAG tagged FKBP12; set-up: made in house; conditions: read-out: Binding affinity to FKBP12 (by displacement of FK506)
T1 sequence (P62942 whole entry, species assumed): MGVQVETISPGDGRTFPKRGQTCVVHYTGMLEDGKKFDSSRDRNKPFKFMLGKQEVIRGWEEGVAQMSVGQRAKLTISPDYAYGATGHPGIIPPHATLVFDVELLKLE
Excerpt: The binding of compounds of the invention to FKBP12 can be determined using the following protocol.
This protocol utilizes Perkin Elmers AlphaLISA technology platform to detect FKBP binders by measuring the inhibition of binding of biotinylated FK506 to FLAG tagged FKBP12.
10×TBST Buffer (Boston BioProducts IBB-181), Biotinylated FK506 (in-house), FLAG tagged FKBP (in-house); anti-FLAG Donor beads (PerkinElmer AS103) and Streptavidin Acceptor beads (PerkinElmer AL125); Compounds in DMSO (in-house), FK506.
Add 20 uL of 12.5 nM FKBP-FLAG working stock to each well of the 96-well plate. Add 1 uL of test compound (100% DMSO) to each well of the plate using the Janus MTD head and P20 tips (except control wells). Add 1 uL of DMSO to negative control wells and 1 uL of 50 uM FK506 solution to positive control wells. In the dark, add 20 uL of combined Donor/Acceptor beads to each well. Incubate in the dark for 30 minutes at room temperature. In the dark, add 10 uL of 5 nM biotinylated FK506 working stock to each well. Incubate in the dark for 60 minutes at room temperature. Protect plate from light until reading on Biotek Synergy2 Plate Reader; Alphalisa 96-well protocol (680 excitation/615 emission).

FKBP12 [2] = target: T1, FKBP12; test: SPR binding of compound (analyte) to immobilized FKBP12; conditions: for Kd: read-out: SPR affinity to FKBP12: KD, 25° C., Table 7
Protocol: This protocol utilizes Surface Plasmon Resonance (SPR) as a method to determine kinetics (KD, Ka, Kd) for the binding of compound (analyte) to immobilized FKBP12 (ligand).
Compound in 100% DMSO (in-house), 10×HBS-P+ buffer (GE Healthcare BR-1006-71), Assay buffer (1×HBS-P+ buffer, 1% DMSO), 12×HIS tagged FKBP12 (in-house).
Experiments are performed at 25° C. Stock solution of 12×HIS tagged FKBP12 is diluted to 100 nM in assay buffer (1% DMSO final). Approximately 500-600 RU of FKBP12 is immobilized on one of two flow cells of an activated NTA chip. The second flow cell is not activated as a reference for non-specific interaction of the analyte to the sensor chip. Various concentrations of compound (1 nM-1 μM range), serially diluted into the same assay buffer (1% DMSO final), are injected onto the FKBP12 surface and reference surface at a flow rate of 10 μl/min. The surface is regenerated between analyte injections with 350 mM EDTA.
Experiments are performed at 25° C. Stock solution of 12×HIS tagged FKBP12 is diluted to 100 nM in assay buffer (1% DMSO final). Approximately 500-600 RU of FKBP12 is immobilized on one of two flow cells of an activated NTA chip. The second flow cell is not activated as a reference for non-specific interaction of the analyte to the sensor chip.

CEP250 [3] = target: T2, CEP250 (Homo sapiens, UniProt Q9BV73); test: ITC binding of FKBP12-compound binary complexes to CEP250; conditions: FKBP12 10 μM + ligand 20 μM in cell, 298 K; for Kd: calculated from Ka = 1/Kd
T2 construct: CEP25011.4 (residues 2134-2231) (in-house); made in house

CEP250 [4] = target: T2, CEP250; test: SPR binding of CEP250 (analyte) to immobilized FKBP12-F2 binary complex; conditions: 1 μM F2
Protocol: This protocol utilizes Surface Plasmon Resonance (SPR) as a method to determine kinetics (KD, Ka, Kd) for the binding of CEP250 (analyte) to immobilized FKBP12-F2 binary complex (ligand).
Experiments are performed at 25° C. […] Approximately 200-400 RU of FKBP12 is immobilized on one of two flow cells of an activated NTA chip. The second flow cell is not activated as a reference for non-specific interaction of the analyte to the sensor chip. […] The surface is regenerated between analyte injections with 350 mM EDTA.
The BiaEvaluation software program is used for data fitting. All data is reference subtracted against both the reference flow cell and a buffer injection. For kinetic analyses, data is locally fit to a 1:1 interaction model.

CEP250 [5] = target: T3, CEP250 (Homo sapiens, UniProt P62942+Q9BV73); test: Crystal structure analysis of FKBP12-compound-CEP250 ternary complexes
T3 construct: CEP25011.4 (residues 2134-2231) (in-house); made in house
T3 sequence (Q9BV73 2134-2231): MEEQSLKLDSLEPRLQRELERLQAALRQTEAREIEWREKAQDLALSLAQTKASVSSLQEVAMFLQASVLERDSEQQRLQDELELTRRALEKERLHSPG
T3 sequence (P62942 whole entry, the tested form may be a part): as the sequence (P62942 whole entry, species assumed) above
Protocol: This protocol describes the crystallization and structure determination method for structures of FKBP12-Compound 2-CEP250 and FKBP12-F11-CEP250 ternary complexes.
A 3:1 molar excess of FKBP12-F2 or FKBP12-F11 binary complex is added to CEP25011.4 and incubated at 4° C. overnight to complete ternary complex formation. Pure ternary complex is isolated by gel filtration purification on a Superdex 200 column in 12.5 mM HEPES pH 7.4, 75 mM NaCl. Purified complex (at 10-20 mg/ml) is subjected to crystallization at 22° C. using sitting drop vapor diffusion. FKBP12-F2-CEP250 crystals grow in a well solution containing 0.2 M sodium malonate, 0.1 M HEPES 7.0, 21% PEG 3350. FKBP12-F11-CEP250 crystals grow in a well solution containing 0.1 M Tris pH 8.5, 0.2 M trimethylamine N-oxide, 22-24% PEG2000 MME. For data collection crystals are transferred to a solution containing mother liquor supplemented with 20-25% glycerol, and then frozen in liquid nitrogen. Diffraction datasets are collected at the Advanced Photon Source (APS) and processed with the HKL program. Molecular replacement solutions are obtained using the program PHASER in the CCP4 suite, using the published structure of FKBP12 (PDB-ID 1FKD) as a search model. Subsequent model building and refinement are performed according to standard protocols with the software packages CCP4 and COOT.

[6] = FKBP12-compound-CEP250 crystal structure

IC50 (HeLa-FKBP12 cells)	IC50 (FKBP12 [1])	Kd (FKBP12 [2])	SMILES	Ka (FKBP12 [2]; Example 10, 25° C., 1:1 interaction model)	ΔG (CEP250 [3]; CEP25011.4 68 μM in syringe)	ΔH (CEP250 [3]; CEP25011.4 68 μM in syringe)	−T*ΔS (CEP250 [3]; CEP25011.4 68 μM in syringe)	Kd (CEP250 [3]; CEP25011.4 68 μM in syringe)	ΔG (CEP250 [3]; CEP25029.4 118 μM in syringe)	ΔH (CEP250 [3]; CEP25029.4 118 μM in syringe)	−T*ΔS (CEP250 [3]; CEP25029.4 118 μM in syringe)	Kd (CEP250 [3]; CEP25029.4 118 μM in syringe)	Ka (CEP250 [4]; FKBP12/F2 complex to CEP25011.4 (residues 2134-2231))	Ka (CEP250 [4]; FKBP12/F2 complex to CEP25029.2 (residues 1982-2231))	buried surface area of CEP250 contributed by FKBP12 (CEP250 [5]; [6])	buried surface area of CEP250 contributed by the compound (CEP250 [5]; [6])	total buried surface area of CEP250 (CEP250 [5]; [6])	total buried surface area of the ternary complex (CEP250 [5]; [6])	binding interactions between compound and CEP250 that are van der Waals or pi-pi interactions (CEP250 [5]; ternary complex)
> 1000 nM	36.3 nM	21.2 nM	CC1=CC2=CC(O)C(C=C2)OC(=O)C2CCCCN2C(=O)C(=O)C2(O)OC(CCC2C)C(C)C(O)C=CC(C)CCC(O)C(C)=CC(C)C1 (stereo not shown) [Compound F12]																
< 1000 nM	0.3 nM	0.23 nM	COC1C(O)CCC(CC(C)C2CCCC=CCC(C)=CCC3OC(O)(C(=O)C(=O)N4CCCCC4C(=O)O2)C(C)CC3C)C1O (stereo not shown) [Compound F9]																
> 1000 nM	21.1 nM	17.2 nM	CCC1C=C(C)C(O)CCC(C)C=CC(O)C(C)C2CCC(C)C(O)(O2)C(=O)C(=O)N2CCCCC2C(=O)OC2C=CC(=CC2O)C=C(C)C1 (stereo not shown) [Compound F10]																

SMILES	IC50 (HeLa-FKBP12 cells)	IC50 (FKBP12 [1])	Kd (FKBP12 [2])	Ka (FKBP12 [2]; Example 10, 25° C., 1:1 interaction model)	ΔG (CEP250 [3]; CEP25011.4 68 μM in syringe)	ΔH (CEP250 [3]; CEP25011.4 68 μM in syringe)	−T*ΔS (CEP250 [3]; CEP25011.4 68 μM in syringe)	Kd (CEP250 [3]; CEP25011.4 68 μM in syringe)	ΔG (CEP250 [3]; CEP25029.4 118 μM in syringe)	ΔH (CEP250 [3]; CEP25029.4 118 μM in syringe)	−T*ΔS (CEP250 [3]; CEP25029.4 118 μM in syringe)	Kd (CEP250 [3]; CEP25029.4 118 μM in syringe)	Ka (CEP250 [4]; FKBP12/F2 complex to CEP25011.4 (residues 2134-2231))	Ka (CEP250 [4]; FKBP12/F2 complex to CEP25029.2 (residues 1982-2231))	buried surface area of CEP250 contributed by FKBP12 (CEP250 [5]; [6])	buried surface area of CEP250 contributed by the compound (CEP250 [5]; [6])	total buried surface area of CEP250 (CEP250 [5]; [6])	total buried surface area of the ternary complex (CEP250 [5]; [6])	binding interactions between compound and CEP250 that are van der Waals or pi-pi interactions (CEP250 [5]; ternary complex)
CC[C@H](Cc1ccccc1)[C@@H]1/C=C/C/C=C/C[C@@H](C)[C@H](O)[C@@H](C)[C@@H]2CC[C@@H](C)C(=O)C(O)(O2)C(=O)N2CCCC[C@H]2C(=O)O1 [Compound F2, (2S)-1-((4R,7S)-7-((2R,3S,4R,6E,9E,11R,12R)-12-benzyl-3,11-dihydroxy-4-methyltetradeca-6,9-dien-2-yl)-2-hydroxy-4-methyl-3-oxooxepane-2-carbonyl)piperidine-2-carboxylic acid C-11 lactone]	< 1000 nM	1.5 nM	12.6 nM	45000 M⁻¹ s⁻¹	−40.75 kJ*mol −mol−1	−49.37 kJ*mol −mol−1	8.62 kJ*mol −mol−1	70 nM	−38.41 kJ*mol −mol−1	−52.21 kJ*mol −mol−1	13.80 kJ*mol −mol−1	190 nM	571000 M⁻¹ s⁻¹	311000 M⁻¹ s⁻¹	663 Å^2	232 Å^2 and 241 Å^2	865 Å^2	1759 Å^2	100%
